Experimental data as given in patent publication US20200377561A1, “ANTIMICROBIAL PEPTIDES AND METHODS OF TREATING GRAM-NEGATIVE PATHOGEN INFECTIONS: POLAR AND NON-POLAR FACE ANALOGS” (THE REGENTS OF THE UNIVERSITY OF COLORADO, a body corporate, priority 2017, published 2020).
Peptide text beside a SMILES is read from it.

Legend:
Human erythrocytes = experiment: Haemolysis assay using human blood; format: cell-based; conditions: red cells of human, 1 h
Experimental: To determine the extent of haemolytic activity (the ability to lyse red blood cells) in test peptides, a haemolysis assay was conducted using human blood (BioIVT, West Sussex, UK). Human erythrocytes were exposed to a single fixed concentration or a range of concentrations as to determine the % haemolysis (fixed concentration) or the concentration at which 50% haemolysis occurred (HC50), respectively. Prior to the assay, whole human blood was repeatedly washed in phosphate buffered saline (PBS) under cooled conditions to remove the buffy coat, plasma and cell debris. Washed erythrocytes were diluted as to achieve 1×10^8 cells/mL in PBS. Prepared human erythrocyte samples were combined with peptide at a single fixed concentration of 128 μg/mL, or a range of concentrations (two-fold dilution series) from 1000-31.25 μg/mL. Positive and negative controls containing 2% (v/v) Triton X-100 and PBS alone, respectively, were also prepared. Samples were incubated at 37° C. for 1 hour and then centrifuged to collect intact erythrocytes. Haemoglobin release was determined by recording the optical density of the supernatant at 540 nm. Optical density values were transformed to a percentage of the positive control. Results were recorded as a percentage haemolysis at 128 μg/mL, or by plotting the percentage haemolysis versus concentration and extrapolating the HC50 using linear regression analysis (Table 2 above)
The therapeutic index is a widely-accepted parameter to represent the specificity of antimicrobial peptides for prokaryotic versus eukaryotic cells. It is calculated by the ratio of hemolytic activity and antimicrobial activity (MIC) (Table 2 above); thus, larger values of therapeutic index indicate greater specificity for prokaryotic cells. With the peptides used in this study the inventors used the HC50/MIC ratio value to calculate the therapeutic index.

[1] = Peptide hydrophobicity by RP-HPLC retention; format: physicochemical; conditions: for tR (relative hydrophobicity by RP-HPLC): Zorbax SB-300 C8, 0.25% B/min from 10% B, 0.3 ml/min, 30° C.; for ΔtR (Lys): retention time difference to the Lys13/Lys16 parent peptide
Source text: Retention behavior in RP-HPLC is an excellent method to represent overall peptide hydrophobicity. Retention times of peptides are highly sensitive to the conformational status of the peptides upon interaction with the hydrophobic environment of the column matrix^17,26. The non-polar faces of amphipathic alpha-helical and amphipathic cyclic beta-sheet peptides represent a preferred binding domain for interaction with the hydrophobic matrix of the reversed-phase column^27. In this study, the observed peptide hydrophobicity was determined by RP-HPLC retention time as described below and are relative hydrophobicities because they are dependent on the TFA concentration and organic solvent in the mobile phase, gradient rate, temperature, flow rate and the column used. Analytical Purification by Reversed-phase Chromatography: Analytical RP-HPLC: Column: Zorbax SB-300 C8 (150×2.1 mm ID; 5-μm particle size; 300 Å pore size). Conditions: linear AB gradient (0.25% B/min from 10% B) at a flow-rate of 0.3 ml/min, where Eluent A is 0.2% aq. TFA and Eluent B is 0.18% TFA in acetonitrile; 30° C.

[2] = test system: Pseudomonas aeruginosa ATCC 27853; format: cell-based; conditions: ATCC 27853
Experimental: (§1) Bacterial strains were acquired from the American Type Culture Collection (ATCC, Virginia, USA) and the National Collection of Type Cultures (NCTC, Public Health England, Salisbury, UK). Minimum Inhibitory Concentration (MIC) of peptides versus gram-negative strains-Acinetobacter baumannii NCTC 13420, and Pseudomonas aeruginosa ATCC 27853 and gram-positive strain Staphylococcus aureus ATCC 29213, were determined by broth microdilution as per the guidelines of the Clinical and Laboratory Standards Institute (“Methods for Dilution Antimicrobial Susceptibility Tests for Bacteria That Grow Aerobically”; Approved Standard-Ninth Edition. CLSI document M07-A9, 2012). Peptides were dissolved in sterile distilled water, which was also used as the drug-free vehicle control when determining peptide MICs. Prior to use in the MIC protocol, bacterial strains were grown on Mueller Hinton agar at 37° C. in an ambient atmosphere. […] A fixed inoculum of the test microorganism (5×10^5 cells/mL) is also added to the plate. The MIC is determined as the lowest concentration of compound that inhibits visible bacterial growth following incubation at 37° C. for 16-20 hours. A difference in MIC of two-fold between experimental replicates is considered to be within the normal variability of this protocol.

[3] = test system: Acinetobacter baumannii NCTC 13420; format: cell-based; conditions: NCTC 13420
Experimental: as §1

| SMILES | Haemolysis HC50 (Human erythrocytes) | tR (relative hydrophobicity by RP-HPLC) [1] | ΔtR (Lys) [1] | P. aeruginosa ATCC27853 MIC [2] | Antimicrobial Activity MIC A. baumannii NCTC13420 [3] |
| --- | --- | --- | --- | --- | --- |
| CC(=O)N[C@H](C)C(=O)N[C@H](CC(C)C)C(=O)N[C@H](CCCCN)C(=O)N[C@H](CCCCN)C(=O)N[C@H](CC(C)C)C(=O)N[C@H](CC(C)C)C(=O)N[C@H](CCCCN)C(=O)N[C@H](CCCCN)C(=O)N[C@H](CC(C)C)C(=O)N[C@H](CO)C(=O)N[C@H](CO)C(=O)N[C@H](C)C(=O)N[C@H](CN)C(=O)N[C@H](CO)C(=O)N[C@H](CO)C(=O)N[C@H](CN)C(=O)N[C@H](CC(C)C)C(=O)N[C@H](CO)C(=O)N[C@@H](C(=O)N[C@H](CC(C)C)C(=O)N[C@H](CC(C)C)C(=O)N[C@H](CCCCN)C(=O)N[C@H](CCCCN)C(=O)N[C@H](CC(C)C)C(=O)N[C@H](CCCCN)C(=O)N[C@H](CCCCN)C(N)=O)[C@H](C)O [compound 21] (HELM PEPTIDE1{[ac].[dA].[dL].[dK].[dK].[dL].[dL].[dK].[dK].[dL].[dS].[dS].[dA].[NC[C@@H](N[*:1])C(=O)[*:2]].[dS].[dS].[NC[C@@H](N[*:1])C(=O)[*:2]].[dL].[dS].[dT].[dL].[dL].[dK].[dK].[dL].[dK].[dK].[am]}$$$$V2.0) | >1000 µg/mL | 94.92 min | 0.41 min | 4 µg/mL | 2 µg/mL |
| CC(=O)N[C@H](CCCCN)C(=O)N[C@H](CC(C)C)C(=O)N[C@H](CCCCN)C(=O)N[C@H](CCCCN)C(=O)N[C@H](CC(C)C)C(=O)N[C@H](CC(C)C)C(=O)N[C@H](CCCCN)C(=O)N[C@H](CCCCN)C(=O)N[C@H](CC(C)C)C(=O)N[C@H](CO)C(=O)N[C@H](CO)C(=O)N[C@H](C)C(=O)N[C@H](CCCN)C(=O)N[C@H](CO)C(=O)N[C@H](CO)C(=O)N[C@H](CCCN)C(=O)N[C@H](CC(C)C)C(=O)N[C@H](CO)C(=O)N[C@@H](C(=O)N[C@H](CC(C)C)C(=O)N[C@H](CC(C)C)C(=O)N[C@H](CCCCN)C(=O)N[C@H](CCCCN)C(=O)N[C@H](CC(C)C)C(=O)N[C@H](CCCCN)C(=O)N[C@H](CCCCN)C(N)=O)[C@H](C)O [compound 14] (HELM PEPTIDE1{[ac].[dK].[dL].[dK].[dK].[dL].[dL].[dK].[dK].[dL].[dS].[dS].[dA].[NCCC[C@@H](N[*:1])C(=O)[*:2]].[dS].[dS].[NCCC[C@@H](N[*:1])C(=O)[*:2]].[dL].[dS].[dT].[dL].[dL].[dK].[dK].[dL].[dK].[dK].[am]}$$$$V2.0) | >1000 µg/mL | 83.40 min | 3.97 min | 4 µg/mL | 2 µg/mL |
| CC(=O)N[C@H](CCCCN)C(=O)N[C@H](CC(C)C)C(=O)N[C@H](CO)C(=O)N[C@H](CO)C(=O)N[C@H](CC(C)C)C(=O)N[C@H](CC(C)C)C(=O)N[C@H](CO)C(=O)N[C@H](CCCCN)C(=O)N[C@H](CC(C)C)C(=O)N[C@H](CCCCN)C(=O)N[C@H](CCCCN)C(=O)N[C@H](C)C(=O)N[C@H](CCCCN)C(=O)N[C@H](CCCCN)C(=O)N[C@H](CCCCN)C(=O)N[C@H](CCCCN)C(=O)N[C@H](CC(C)C)C(=O)N[C@H](CCCCN)C(=O)N[C@H](CCCCN)C(=O)N[C@H](CC(C)C)C(=O)N[C@H](CC(C)C)C(=O)N[C@H](CCCCN)C(=O)N[C@H](C)C(=O)N[C@H](CC(C)C)C(=O)N[C@H](CO)C(=O)N[C@H](CO)C(N)=O [compound 5] (HELM PEPTIDE1{[ac].[dK].[dL].[dS].[dS].[dL].[dL].[dS].[dK].[dL].[dK].[dK].[dA].[dK].[dK].[dK].[dK].[dL].[dK].[dK].[dL].[dL].[dK].[dA].[dL].[dS].[dS].[am]}$$$$V2.0) | 669 µg/mL |  |  | 2 µg/mL | 1 µg/mL |
| CC(=O)N[C@H](CCCCN)C(=O)N[C@H](CC(C)C)C(=O)N[C@H](CCCCN)C(=O)N[C@H](CO)C(=O)N[C@H](CC(C)C)C(=O)N[C@H](CC(C)C)C(=O)N[C@H](CCCCN)C(=O)N[C@H](CO)C(=O)N[C@H](CC(C)C)C(=O)N[C@H](CO)C(=O)N[C@H](CCCCN)C(=O)N[C@H](C)C(=O)N[C@H](CCCCN)C(=O)N[C@H](CCCCN)C(=O)N[C@H](CCCCN)C(=O)N[C@H](CCCCN)C(=O)N[C@H](CC(C)C)C(=O)N[C@H](CCCCN)C(=O)N[C@H](CO)C(=O)N[C@H](CC(C)C)C(=O)N[C@H](CC(C)C)C(=O)N[C@H](CCCCN)C(=O)N[C@H](C)C(=O)N[C@H](CC(C)C)C(=O)N[C@H](CO)C(=O)N[C@H](CCCCN)C(N)=O [compound 26] (HELM PEPTIDE1{[ac].[dK].[dL].[dK].[dS].[dL].[dL].[dK].[dS].[dL].[dS].[dK].[dA].[dK].[dK].[dK].[dK].[dL].[dK].[dS].[dL].[dL].[dK].[dA].[dL].[dS].[dK].[am]}$$$$V2.0) | >1000 µg/mL |  |  | 2 µg/mL | 1 µg/mL |
| CC(=O)N[C@H](C)C(=O)N[C@H](CC(C)C)C(=O)N[C@H](CCCCN)C(=O)N[C@H](CO)C(=O)N[C@H](CC(C)C)C(=O)N[C@H](CC(C)C)C(=O)N[C@H](CCCCN)C(=O)N[C@H](CCCCN)C(=O)N[C@H](CC(C)C)C(=O)N[C@H](CO)C(=O)N[C@H](CCCCN)C(=O)N[C@H](C)C(=O)N[C@H](CCCCN)C(=O)N[C@H](CCCCN)C(=O)N[C@H](CCCCN)C(=O)N[C@H](CCCCN)C(=O)N[C@H](CC(C)C)C(=O)N[C@H](CCCCN)C(=O)N[C@H](CCCCN)C(=O)N[C@H](CC(C)C)C(=O)N[C@H](CC(C)C)C(=O)N[C@H](CCCCN)C(=O)N[C@H](C)C(=O)N[C@H](CC(C)C)C(=O)N[C@H](CO)C(=O)N[C@H](CO)C(N)=O [compound 23] (HELM PEPTIDE1{[ac].[dA].[dL].[dK].[dS].[dL].[dL].[dK].[dK].[dL].[dS].[dK].[dA].[dK].[dK].[dK].[dK].[dL].[dK].[dK].[dL].[dL].[dK].[dA].[dL].[dS].[dS].[am]}$$$$V2.0) | 175 µg/mL |  |  | 2 µg/mL | 2 µg/mL |
| CC(=O)N[C@H](C)C(=O)N[C@H](CC(C)C)C(=O)N[C@H](CO)C(=O)N[C@H](CO)C(=O)N[C@H](CC(C)C)C(=O)N[C@H](CC(C)C)C(=O)N[C@H](CO)C(=O)N[C@H](CCCCN)C(=O)N[C@H](CC(C)C)C(=O)N[C@H](CCCCN)C(=O)N[C@H](CCCCN)C(=O)N[C@H](C)C(=O)N[C@H](CCCCN)C(=O)N[C@H](CCCCN)C(=O)N[C@H](CCCCN)C(=O)N[C@H](CCCCN)C(=O)N[C@H](CC(C)C)C(=O)N[C@H](CCCCN)C(=O)N[C@H](CCCCN)C(=O)N[C@H](CC(C)C)C(=O)N[C@H](CC(C)C)C(=O)N[C@H](CCCCN)C(=O)N[C@H](C)C(=O)N[C@H](CC(C)C)C(=O)N[C@H](CO)C(=O)N[C@H](CO)C(N)=O [compound 10] (HELM PEPTIDE1{[ac].[dA].[dL].[dS].[dS].[dL].[dL].[dS].[dK].[dL].[dK].[dK].[dA].[dK].[dK].[dK].[dK].[dL].[dK].[dK].[dL].[dL].[dK].[dA].[dL].[dS].[dS].[am]}$$$$V2.0) | >1000 µg/mL |  |  | 2 µg/mL | 2 µg/mL |
